Legend:
[1] = molecular target: T1, Cannabinoid receptor 2 (Homo sapiens, UniProt P34972); assay: Agonist activity at human cloned CB2 receptor expressed in CHO cells assessed as inhibition of forskolin-induced cAMP accumulation; format: functional, cell-based
[2] = molecular target: T2, Cannabinoid receptor 1 (Homo sapiens, UniProt P21554); assay: Agonist activity at human cloned CB1 receptor expressed in CHO cells assessed as inhibition of forskolin-induced cAMP accumulation; format: functional, cell-based
[3] = molecular target: T1, Cannabinoid receptor 2; assay: Agonist activity at human cloned CB2 receptor expressed in CHO cells assessed as inhibition of forskolin-induced cAMP accumulation relative to control; format: functional, cell-based
[4] = AUC (0 to 6 hrs) in rat at 10 mg/kg, po; format: ADME, organism-based; set-up: time < 6 hr, dose 10 mg/kg, route oral; settings: plasma
[5] = molecular target: T2, Cannabinoid receptor 1; assay: Agonist activity at human cloned CB1 receptor expressed in CHO cells assessed as inhibition of forskolin-induced cAMP accumulation relative to control; format: functional, cell-based
[6] = molecular target: T1, Cannabinoid receptor 2; assay: Displacement of [3H]-CP55940 from human cloned CB2 receptor expressed in CHO cells; format: cell-based
[7] = molecular target: T2, Cannabinoid receptor 1; assay: Displacement of [3H]-CP55940 from human cloned CB1 receptor expressed in CHO cells; format: cell-based

T2 sequence (P21554 whole entry): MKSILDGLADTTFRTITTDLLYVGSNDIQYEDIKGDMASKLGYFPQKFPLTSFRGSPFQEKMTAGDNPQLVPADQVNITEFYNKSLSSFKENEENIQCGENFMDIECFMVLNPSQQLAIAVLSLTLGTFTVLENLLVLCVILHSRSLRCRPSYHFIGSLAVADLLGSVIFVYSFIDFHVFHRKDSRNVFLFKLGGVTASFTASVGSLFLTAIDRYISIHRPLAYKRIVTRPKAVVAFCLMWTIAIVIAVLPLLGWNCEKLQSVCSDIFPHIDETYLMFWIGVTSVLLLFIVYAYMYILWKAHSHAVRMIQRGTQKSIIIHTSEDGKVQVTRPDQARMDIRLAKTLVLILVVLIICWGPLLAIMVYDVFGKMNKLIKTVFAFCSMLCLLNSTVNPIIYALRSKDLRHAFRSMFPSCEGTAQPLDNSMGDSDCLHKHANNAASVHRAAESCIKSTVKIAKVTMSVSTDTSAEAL
T1 sequence (P34972 whole entry): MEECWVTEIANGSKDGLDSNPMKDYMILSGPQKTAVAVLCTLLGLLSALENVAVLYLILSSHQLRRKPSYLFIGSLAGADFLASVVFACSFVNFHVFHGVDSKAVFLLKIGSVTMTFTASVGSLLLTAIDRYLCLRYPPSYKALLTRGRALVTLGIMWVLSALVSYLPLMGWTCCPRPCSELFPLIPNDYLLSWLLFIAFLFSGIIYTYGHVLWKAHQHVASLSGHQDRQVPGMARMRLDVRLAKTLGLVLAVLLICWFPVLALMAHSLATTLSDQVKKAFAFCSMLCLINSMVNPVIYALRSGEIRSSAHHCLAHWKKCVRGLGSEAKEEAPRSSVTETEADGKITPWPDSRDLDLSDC

| EC50 [1] [µM] | Emax [3] [%] | SMILES | EC50 [2] [µM] | AUC(0-t) at 6 h [4] [µM·h] | Emax [5] [%] | Ki [6] [µM] | Ki [7] [µM] |
| --- | --- | --- | --- | --- | --- | --- | --- |
| 0.025 | 98 | FC1(F)CCCN(Cc2cccc(-c3nc(-c4cccc(C(F)(F)F)c4)c[nH]3)c2)C1 |  | 0.851 |  |  |  |
| 0.008 | 107 | FC1CCN(Cc2cccc(-c3nc(-c4cccc(Cl)c4)c[nH]3)c2)CC1 | 0.13 |  |  |  |  |
| 0.218 |  | CC(C)n1cc(-c2cccc(C(F)(F)F)c2)nc1-c1cccc(CN2CCOCC2)c1 | > 1 |  |  |  |  |
| 0.061 | 91 | OCC1CCCN(Cc2cccc(-c3nc(-c4cccc(C(F)(F)F)c4)c[nH]3)c2)C1 (centres undefined) | > 1 |  |  |  |  |
| 0.024 | 104 | Clc1ccc(-c2c[nH]c(-c3cccc(CN4CCCCC4)c3)n2)c(Cl)c1 | 1.8 |  |  |  |  |
| 0.014 | 102 | CC1CN(Cc2cccc(-c3nc(-c4cccc(Cl)c4)c[nH]3)c2)CCO1 (centres undefined) | 3.25 |  |  |  |  |
| 0.006 | 100 | FC(F)(F)c1cccc(-c2c[nH]c(-c3cccc(CN4CCSCC4)c3)n2)c1 | > 1 | 0.042 |  |  |  |
| 0.009 | 102 | CC(=O)n1cc(-c2cccc(C(F)(F)F)c2)nc1-c1cccc(CN2CCOCC2)c1 | > 1 |  |  |  |  |
| 0.113 | 92 | O[C@H]1CCCN(Cc2cccc(-c3nc(-c4cccc(C(F)(F)F)c4)c[nH]3)c2)C1 | > 10 |  |  |  |  |
| 0.005 | 119 | FC1CCN(Cc2cccc(-c3nc(-c4cccc(Cl)c4Cl)c[nH]3)c2)CC1 | 1.29 |  |  |  |  |
| 0.005 | 107 | COc1ccc(F)c(-c2c[nH]c(-c3cccc(CN4CCC(F)(F)CC4)c3)n2)c1 | 0.025 |  |  |  |  |
| 0.005 | 106 | COc1ccc(F)c(-c2c[nH]c(-c3cccc(CN4CCC(F)CC4)c3)n2)c1 | 0.087 |  |  |  |  |
| 0.51 | 102 | CC1CN(Cc2ccccc2-c2nc(-c3cccc(C(F)(F)F)c3)c[nH]2)CCO1 (centres undefined) | > 10 |  |  |  |  |
| 0.009 | 107 | FC1CCN(Cc2cccc(-c3nc(-c4cccc(C(F)(F)F)c4)c[nH]3)c2)CC1 | 2.29 | 0.524 |  |  |  |
| 0.13 | 108 | FC1CCN(Cc2ccccc2-c2nc(-c3cccc(C(F)(F)F)c3)c[nH]2)CC1 | > 10 |  |  |  |  |
| 0.016 | 98 | FC1CCCN(Cc2cccc(-c3nc(-c4cccc(C(F)(F)F)c4)c[nH]3)c2)C1 (centres undefined) |  | 0.682 |  |  |  |
| 0.011 | 101 | O=C(c1ccccc1)n1cc(-c2cccc(C(F)(F)F)c2)nc1-c1cccc(CN2CCOCC2)c1 |  |  |  |  |  |
| 0.169 | 78 | C[C@H]1COCCN1Cc1cccc(-c2nc(-c3cccc(C(F)(F)F)c3)c[nH]2)c1 |  |  |  |  |  |
| 0.07 | 87 | CC1CCCN(Cc2cccc(-c3nc(-c4cccc(C(F)(F)F)c4)c[nH]3)c2)C1 (centres undefined) |  | 1.41 |  |  |  |
| 0.087 | 102 | CCOc1ccc(F)c(-c2c[nH]c(-c3cccc(CN4CCCCC4)c3)n2)c1 | 8.5 |  |  |  |  |

| SMILES | EC50 [1] [µM] | Emax [3] [%] | EC50 [2] [µM] | AUC(0-t) at 6 h [4] [µM·h] | Emax [5] [%] | Ki [6] [µM] | Ki [7] [µM] |
| --- | --- | --- | --- | --- | --- | --- | --- |
| FC(F)(F)c1cccc(-c2cn(Cc3ccccc3)c(-c3cccc(CN4CCOCC4)c3)n2)c1 | > 1 |  | > 1 |  |  |  |  |
| Clc1cccc(-c2c[nH]c(-c3cccc(CN4CCCCC4)c3)n2)c1Cl | 0.008 | 115 | 12.6 |  |  |  |  |
| COc1ccc(F)c(-c2c[nH]c(-c3cccc(CN4CCOCC4)c3)n2)c1 | 0.004 | 109 | 0.14 |  |  |  |  |
| FC1CCN(Cc2cccc(-c3nc(-c4ccc(Cl)cc4Cl)c[nH]3)c2)CC1 | 0.01 | 107 | 2.45 |  |  |  |  |
| FC(F)(F)c1cccc(-c2c[nH]c(-c3cccc(CN4CCOCC4)c3)n2)c1 | 0.008 | 80 | > 1 | 0.866 | 67 | 0.042 | 1 |
| O=S(=O)(c1ccccc1)n1cc(-c2cccc(C(F)(F)F)c2)nc1-c1cccc(CN2CCOCC2)c1 | > 1 |  |  |  |  |  |  |
| FC(F)(F)c1cccc(-c2c[nH]c(-c3cccc(CN4CCCCC4)c3)n2)c1 | 0.014 | 104 | > 10 | 0.537 |  |  |  |
| FC(F)(F)c1cccc(-c2cn(-c3ccccc3)c(-c3cccc(CN4CCOCC4)c3)n2)c1 | > 1 |  |  |  |  |  |  |
| FC1(F)CCN(Cc2cccc(-c3nc(-c4cccc(C(F)(F)F)c4)c[nH]3)c2)CC1 | 0.005 | 100 | 2.55 | 1.11 |  |  |  |
| FC(F)(F)c1cccc(-c2cn(CC3CC3)c(-c3cccc(CN4CCOCC4)c3)n2)c1 | 0.412 | 68 | > 1 |  |  |  |  |
| CC1CCN(Cc2cccc(-c3nc(-c4cccc(Cl)c4Cl)c[nH]3)c2)CC1 | 0.025 | 107 | > 10 |  |  |  |  |
| Clc1cccc(-c2c[nH]c(-c3cccc(CN4CCCCC4)c3)n2)c1 | 0.01 | 114 | 1.05 |  |  |  |  |
| COc1ccc(F)c(-c2c[nH]c(-c3cccc(CN4CCCCC4)c3)n2)c1 | 0.004 | 108 | 0.32 |  |  |  |  |
| CC1CCN(Cc2cccc(-c3nc(-c4cccc(C(F)(F)F)c4)c[nH]3)c2)CC1 | 0.021 | 97 | > 10 | 0.881 |  |  |  |
| COc1ccc(-c2c[nH]c(-c3cccc(CN4CCC(F)(F)CC4)c3)n2)c(F)c1 | 0.003 | 107 | 0.039 |  |  |  |  |
| Brc1cccc(-c2c[nH]c(-c3cccc(CN4CCOCC4)c3)n2)c1 | 0.005 | 112 | 0.665 | 0.158 |  |  |  |
| CC1CN(Cc2cccc(-c3nc(-c4cccc(C(F)(F)F)c4)c[nH]3)c2)CCO1 (centres undefined) | 0.025 | 97 | > 10 | 1.99 |  |  |  |
